The source made the active and inactive calls.
Legend:
[1] = Luminescence Cell-Based Dose Retest to Confirm Inhibitors of Cancer Stem Cells. [Related pubchem assays (depositor defined):AID2717, AID2721]; format: functional; settings: Homo sapiens
[2] = THP-1 cell cytotoxicity, dose response, cytotoxicity control for non-replicating M. tuberculosis project (AID 489025); format: functional
[3] = Vero E6 cell cytotoxicity, dose response, cytotoxicity control for non-replicating M. tuberculosis project, secondary assay (AID 492998); format: functional, VeroE6; settings: Vero C1008
[4] = microbe, parasite or virus in culture; format: functional; settings: Mycobacterium tuberculosis
[5] = HepG2 cell cytotoxicity, dose response, cytotoxicity control for non-replicating M. tuberculosis project (AID 489018); format: functional; settings: Mycobacterium tuberculosis
cells = format: functional
HEK293 [6] = test: cells; settings: Homo sapiens
HEK293 [7] = test: cells; settings: Homo sapiens; remark: listed apart in the source
[8] = non-specific 3'UTR reporter inhibition in Clone20-Shn3RL – cell-based, Renilla luciferase, cherry-picked, counter-screen for Shn3 inhibitor project, dose response (AID 624133); format: functional
[9] = reduction of Shn3 3'UTR-driven luciferase in osteoblasts – cell-based, Clone20 osteoblasts, firefly luciferase, cherry-picked, dose response (AID 624132); format: functional;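 note: firefly luciferase luminescence from reporter carrying the Shn3 3'UTR in osteoblasts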
[10] = viability loss in CEM21 cells – cell-based, CellTiter-Glo luminescence, cherry-picked, cytotoxicity control for viral fusion inhibitor project, dose response (AID 652042); format: functional;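 note: potency for signal decrease meaning cytotoxicity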
[11] = loss of viability in HepG2 cells – cell-based, CellTiter-Glo, cherry-picked, cytotoxicity control for Shn3 inhibitor project, dose response (AID 624134); format: functional
[12] = blockers of HIV-1 envelope-mediated cell-cell fusion – cherry-pick, dose response (AID 652057); format: functional, cell-based
[13] = off-target signal loss in HeLa-CEM21 co-culture – HeLa F-luc CTL cells, cherry-picked, counter-screen for HIV-1 Env fusion inhibitor project, dose response (AID 652040); format: functional, cell-based;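 note: potency for signal decrease marking cytotoxic or nonspecific inhibition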
[14] = blockers of HIV-1 ZM109 envelope-driven cell-cell fusion – HeLa effector, CEM target cells, luciferase, cherry-pick, dose response (AID 652058); format: functional, cell-based;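 note: luciferase signal from HIV-1 Env mediated cell-cell fusion of effector and target cells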
[15] = HIV-1 AD8 envelope cell-cell fusion blockers – cherry-pick, dose response (AID 652062); format: functional, cell-based;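 note: luciferase signal from cell-cell fusion driven by HIV-1 clade B AD8 Env; potency is for inhibitors of fusion seen as a drop in luminescence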
[16] = target: T1, Endoribonuclease toxin MazF (Escherichia coli K-12, UniProt P0AE70); test: activation of MazEF endoribonuclease cleavage – biochemical, fluorescence, single-stranded RNA substrate, uHTS hits, dose response (AID 588481); format: functional
T1 sequence (P0AE70 whole entry): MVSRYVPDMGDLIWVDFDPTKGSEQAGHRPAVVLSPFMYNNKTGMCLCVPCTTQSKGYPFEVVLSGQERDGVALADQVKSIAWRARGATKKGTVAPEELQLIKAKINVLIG

[17] = target: T2, RNA-binding protein pos-1 (Caenorhabditis elegans, UniProt G5EF15); test: disruptors of C. elegans POS-1 RNA interaction – biochemical, fluorescence polarization, dose response (AID 1964);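 note: purified POS-1 fused to maltose binding protein made in E. coli; potency of compounds blocking POS-1 binding to fluorescent RNA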
T2 sequence (G5EF15 whole entry): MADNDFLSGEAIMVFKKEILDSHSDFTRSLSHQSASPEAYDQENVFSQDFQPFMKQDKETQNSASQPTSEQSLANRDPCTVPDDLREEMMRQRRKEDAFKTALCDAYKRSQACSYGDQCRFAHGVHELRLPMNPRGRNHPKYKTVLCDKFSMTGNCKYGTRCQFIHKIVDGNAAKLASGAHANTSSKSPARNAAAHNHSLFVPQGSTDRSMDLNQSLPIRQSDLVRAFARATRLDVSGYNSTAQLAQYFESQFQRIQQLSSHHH

[18] = target: T1, Endoribonuclease toxin MazF; test: substrate-only fluorescence increase artefacts – biochemical, single-stranded RNase substrate, counter-screen for MazEF activator project, dose response (AID 588502); format: functional
[19] = target: T3, Zinc finger protein mex-5 (Caenorhabditis elegans, UniProt Q9XUB2); test: potency of MEX-5 RNA-binding blockers – biochemical, C. elegans, fluorescence polarization, dose response (AID 1960)
T3 sequence (Q9XUB2 whole entry): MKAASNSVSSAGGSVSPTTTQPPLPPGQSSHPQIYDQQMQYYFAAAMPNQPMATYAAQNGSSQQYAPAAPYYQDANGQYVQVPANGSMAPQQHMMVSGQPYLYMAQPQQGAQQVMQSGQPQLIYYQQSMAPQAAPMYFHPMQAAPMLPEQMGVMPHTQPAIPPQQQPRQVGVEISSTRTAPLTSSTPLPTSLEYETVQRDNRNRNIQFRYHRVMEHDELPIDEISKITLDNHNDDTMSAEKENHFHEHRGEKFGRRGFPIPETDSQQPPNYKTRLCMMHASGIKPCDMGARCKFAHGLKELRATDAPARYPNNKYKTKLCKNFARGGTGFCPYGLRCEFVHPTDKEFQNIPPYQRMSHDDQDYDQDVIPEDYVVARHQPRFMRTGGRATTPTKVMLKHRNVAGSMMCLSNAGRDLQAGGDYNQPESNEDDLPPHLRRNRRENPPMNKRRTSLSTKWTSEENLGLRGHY

[20] = target: T4, Voltage-gated N-type calcium channel alpha-1B subunit/Amyloid beta A4 precursor protein-binding family A member 1 (Homo sapiens, UniProt Q00975+Q02410); format: protein assay
T4 sequence (Q00975 whole entry): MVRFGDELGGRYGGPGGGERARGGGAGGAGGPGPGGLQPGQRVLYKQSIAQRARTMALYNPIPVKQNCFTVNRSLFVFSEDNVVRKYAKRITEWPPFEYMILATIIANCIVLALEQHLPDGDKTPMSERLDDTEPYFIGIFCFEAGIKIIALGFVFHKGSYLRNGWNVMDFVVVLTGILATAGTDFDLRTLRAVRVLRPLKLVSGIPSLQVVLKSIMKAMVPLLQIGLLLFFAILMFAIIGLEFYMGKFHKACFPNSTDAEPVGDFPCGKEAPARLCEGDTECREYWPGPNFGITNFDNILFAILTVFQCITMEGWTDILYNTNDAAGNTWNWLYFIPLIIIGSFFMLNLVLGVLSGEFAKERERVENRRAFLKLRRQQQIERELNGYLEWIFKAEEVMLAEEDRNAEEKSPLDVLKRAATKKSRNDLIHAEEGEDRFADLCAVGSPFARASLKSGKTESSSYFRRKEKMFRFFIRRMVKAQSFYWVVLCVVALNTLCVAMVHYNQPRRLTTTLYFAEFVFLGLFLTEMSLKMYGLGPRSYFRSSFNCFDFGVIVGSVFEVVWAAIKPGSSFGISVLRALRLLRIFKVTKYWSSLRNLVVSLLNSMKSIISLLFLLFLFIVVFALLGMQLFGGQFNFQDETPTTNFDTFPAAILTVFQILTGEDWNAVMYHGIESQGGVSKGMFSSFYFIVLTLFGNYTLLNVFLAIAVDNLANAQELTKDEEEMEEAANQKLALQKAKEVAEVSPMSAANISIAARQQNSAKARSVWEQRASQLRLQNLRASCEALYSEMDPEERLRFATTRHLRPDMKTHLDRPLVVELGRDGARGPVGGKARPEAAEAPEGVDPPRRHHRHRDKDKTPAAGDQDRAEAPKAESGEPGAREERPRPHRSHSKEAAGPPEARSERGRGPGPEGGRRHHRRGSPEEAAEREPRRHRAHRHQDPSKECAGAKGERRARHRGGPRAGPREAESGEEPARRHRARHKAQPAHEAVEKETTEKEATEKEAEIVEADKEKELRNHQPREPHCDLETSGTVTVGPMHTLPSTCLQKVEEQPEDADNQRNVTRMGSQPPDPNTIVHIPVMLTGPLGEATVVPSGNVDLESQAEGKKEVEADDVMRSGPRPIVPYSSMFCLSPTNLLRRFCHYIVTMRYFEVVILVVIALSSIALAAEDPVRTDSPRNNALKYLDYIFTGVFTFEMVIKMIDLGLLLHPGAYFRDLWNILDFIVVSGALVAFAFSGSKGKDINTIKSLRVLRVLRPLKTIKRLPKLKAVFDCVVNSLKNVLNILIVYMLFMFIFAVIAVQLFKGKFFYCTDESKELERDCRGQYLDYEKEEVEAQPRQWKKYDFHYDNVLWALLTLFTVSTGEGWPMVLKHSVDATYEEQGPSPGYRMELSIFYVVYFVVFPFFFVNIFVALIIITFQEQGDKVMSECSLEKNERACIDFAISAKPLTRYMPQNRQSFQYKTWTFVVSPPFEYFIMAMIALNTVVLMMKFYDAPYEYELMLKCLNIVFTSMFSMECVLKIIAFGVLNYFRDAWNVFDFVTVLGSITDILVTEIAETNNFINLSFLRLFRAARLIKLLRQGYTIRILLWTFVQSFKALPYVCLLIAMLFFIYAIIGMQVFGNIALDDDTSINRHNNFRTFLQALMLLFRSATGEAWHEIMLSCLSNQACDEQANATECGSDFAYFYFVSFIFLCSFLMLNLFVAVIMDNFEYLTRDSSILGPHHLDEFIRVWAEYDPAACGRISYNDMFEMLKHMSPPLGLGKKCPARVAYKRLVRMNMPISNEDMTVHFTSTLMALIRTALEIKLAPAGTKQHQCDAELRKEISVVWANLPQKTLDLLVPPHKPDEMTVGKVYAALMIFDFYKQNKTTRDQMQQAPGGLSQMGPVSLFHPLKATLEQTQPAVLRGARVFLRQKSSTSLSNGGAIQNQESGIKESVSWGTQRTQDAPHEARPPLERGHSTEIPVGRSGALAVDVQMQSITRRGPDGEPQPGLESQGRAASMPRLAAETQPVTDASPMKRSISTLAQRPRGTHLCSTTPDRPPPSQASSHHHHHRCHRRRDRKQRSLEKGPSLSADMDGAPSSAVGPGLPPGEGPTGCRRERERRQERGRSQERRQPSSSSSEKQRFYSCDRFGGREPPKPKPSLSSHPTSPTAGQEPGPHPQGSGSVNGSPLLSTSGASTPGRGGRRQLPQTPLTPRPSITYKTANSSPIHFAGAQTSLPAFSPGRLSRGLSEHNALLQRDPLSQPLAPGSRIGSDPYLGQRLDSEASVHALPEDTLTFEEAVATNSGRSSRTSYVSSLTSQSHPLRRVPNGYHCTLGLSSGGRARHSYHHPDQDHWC
T4 sequence (Q02410 whole entry): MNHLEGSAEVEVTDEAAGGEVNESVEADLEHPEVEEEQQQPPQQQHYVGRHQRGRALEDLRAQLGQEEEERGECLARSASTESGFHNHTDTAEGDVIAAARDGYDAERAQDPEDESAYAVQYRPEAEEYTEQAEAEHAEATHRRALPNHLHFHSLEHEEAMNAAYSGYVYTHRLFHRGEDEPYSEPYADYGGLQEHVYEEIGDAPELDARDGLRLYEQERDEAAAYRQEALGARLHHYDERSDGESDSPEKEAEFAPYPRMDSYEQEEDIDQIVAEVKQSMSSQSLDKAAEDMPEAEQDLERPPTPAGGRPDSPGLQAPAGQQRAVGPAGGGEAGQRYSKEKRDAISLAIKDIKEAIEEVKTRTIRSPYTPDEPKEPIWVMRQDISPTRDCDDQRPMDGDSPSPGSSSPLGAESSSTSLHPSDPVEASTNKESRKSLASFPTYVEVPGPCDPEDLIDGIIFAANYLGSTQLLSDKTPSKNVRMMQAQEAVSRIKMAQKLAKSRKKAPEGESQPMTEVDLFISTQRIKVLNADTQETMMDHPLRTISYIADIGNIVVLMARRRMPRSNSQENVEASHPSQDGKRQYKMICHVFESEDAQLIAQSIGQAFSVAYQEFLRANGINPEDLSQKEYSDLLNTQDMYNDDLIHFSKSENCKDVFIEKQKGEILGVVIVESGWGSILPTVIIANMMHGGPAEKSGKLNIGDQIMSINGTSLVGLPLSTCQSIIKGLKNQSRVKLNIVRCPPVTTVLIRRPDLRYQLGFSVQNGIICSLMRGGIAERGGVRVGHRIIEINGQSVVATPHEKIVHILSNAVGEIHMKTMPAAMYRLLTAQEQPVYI

[21] = target: T4, Voltage-gated N-type calcium channel alpha-1B subunit/Amyloid beta A4 precursor protein-binding family A member 1; format: protein assay; remark: listed apart in the source
[22] = target: T5, Alkaline phosphatase, tissue-nonspecific isozyme (Homo sapiens, UniProt P05186); test: TNAP enzyme inhibition by screening hits, dose response, selectivity assay for mouse IAP inhibitor project, biochemical, human TNAP, uHTS hits (AID 488906); format: functional
T5 sequence (P05186 whole entry): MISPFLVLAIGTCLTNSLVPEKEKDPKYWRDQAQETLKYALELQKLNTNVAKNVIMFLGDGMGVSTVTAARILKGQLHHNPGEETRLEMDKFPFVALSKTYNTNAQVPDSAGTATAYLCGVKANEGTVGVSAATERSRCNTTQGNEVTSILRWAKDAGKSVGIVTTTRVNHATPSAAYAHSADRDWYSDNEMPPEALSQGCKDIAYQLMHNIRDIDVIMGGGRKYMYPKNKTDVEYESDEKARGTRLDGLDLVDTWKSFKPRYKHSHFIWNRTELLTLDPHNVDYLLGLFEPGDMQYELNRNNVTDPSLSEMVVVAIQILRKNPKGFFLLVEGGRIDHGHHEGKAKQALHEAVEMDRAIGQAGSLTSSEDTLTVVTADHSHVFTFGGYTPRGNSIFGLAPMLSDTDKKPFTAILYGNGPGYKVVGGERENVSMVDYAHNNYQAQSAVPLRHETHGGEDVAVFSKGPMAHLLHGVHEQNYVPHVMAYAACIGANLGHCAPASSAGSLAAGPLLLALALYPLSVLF

[23] = target: Intestinal-type alkaline phosphatase (Homo sapiens, UniProt P09923); test: inhibition of human intestinal alkaline phosphatase – biochemical, dose response (AID 488876); format: functional
Sequence of Intestinal-type alkaline phosphatase (Homo sapiens, UniProt P09923) (P09923 whole entry): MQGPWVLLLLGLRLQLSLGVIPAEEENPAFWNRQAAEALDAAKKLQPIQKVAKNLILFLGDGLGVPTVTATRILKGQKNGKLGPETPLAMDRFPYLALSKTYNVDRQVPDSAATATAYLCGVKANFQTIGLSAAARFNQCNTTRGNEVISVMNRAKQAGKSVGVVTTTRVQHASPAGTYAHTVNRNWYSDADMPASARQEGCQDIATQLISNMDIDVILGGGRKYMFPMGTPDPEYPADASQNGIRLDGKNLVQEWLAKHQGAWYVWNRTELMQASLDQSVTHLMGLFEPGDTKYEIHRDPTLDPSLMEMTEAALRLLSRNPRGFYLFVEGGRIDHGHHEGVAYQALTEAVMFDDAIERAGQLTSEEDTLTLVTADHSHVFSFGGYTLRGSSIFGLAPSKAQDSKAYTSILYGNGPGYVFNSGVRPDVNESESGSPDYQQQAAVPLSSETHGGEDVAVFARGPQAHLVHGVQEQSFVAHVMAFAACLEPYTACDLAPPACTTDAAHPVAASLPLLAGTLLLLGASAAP

[24] = target: Intestinal-type alkaline phosphatase (Mus musculus, UniProt P24822); test: PubChem AID 488785; format: functional
Sequence of Intestinal-type alkaline phosphatase (Mus musculus, UniProt P24822) (P24822 whole entry): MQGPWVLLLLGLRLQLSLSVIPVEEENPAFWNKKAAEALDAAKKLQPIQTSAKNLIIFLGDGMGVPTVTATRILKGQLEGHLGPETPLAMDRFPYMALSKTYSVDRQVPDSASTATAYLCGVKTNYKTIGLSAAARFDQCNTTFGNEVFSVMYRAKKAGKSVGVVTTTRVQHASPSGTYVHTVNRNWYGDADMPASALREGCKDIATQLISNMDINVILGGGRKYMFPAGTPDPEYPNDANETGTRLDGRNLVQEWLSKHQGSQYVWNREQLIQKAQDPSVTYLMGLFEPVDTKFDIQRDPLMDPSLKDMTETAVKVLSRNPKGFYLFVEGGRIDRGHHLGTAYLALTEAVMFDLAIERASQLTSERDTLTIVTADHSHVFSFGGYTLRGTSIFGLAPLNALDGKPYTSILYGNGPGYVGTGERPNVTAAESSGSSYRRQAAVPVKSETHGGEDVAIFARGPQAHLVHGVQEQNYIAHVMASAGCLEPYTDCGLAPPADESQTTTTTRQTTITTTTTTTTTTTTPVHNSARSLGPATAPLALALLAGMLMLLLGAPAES

[25] = target: DNA dC->dU-editing enzyme APOBEC-3A (Homo sapiens, UniProt P31941); test: Dose Response confirmation of small molecule APOBEC3A DNA Deaminase Inhibitors via a fluorescence-based single-stranded DNA deaminase assay. [Related pubchem assays (depositor defined):AID493011, AID493024]; format: functional
Sequence of DNA dC->dU-editing enzyme APOBEC-3A (P31941 whole entry): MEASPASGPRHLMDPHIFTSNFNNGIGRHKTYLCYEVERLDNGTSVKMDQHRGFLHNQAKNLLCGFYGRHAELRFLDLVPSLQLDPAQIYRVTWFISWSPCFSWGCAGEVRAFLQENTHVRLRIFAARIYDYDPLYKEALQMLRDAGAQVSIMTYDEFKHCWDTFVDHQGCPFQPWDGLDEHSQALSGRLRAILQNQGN

[26] = NIH3T3 cell viability loss – ATP luminescence, mouse fibroblasts, counter-screen, dose response (AID 2010); format: functional, cell-based;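 note: cells exposed to compound for about 90 hours before reading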
INS1 = test: INS-1E survival protection against cytokine death – cell-based, luminescence, retest, dose response (AID 449756); format: functional; settings: Rattus norvegicus;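 note: cell death triggered by IL-1 beta plus TNF-alpha plus IFN-gamma mixture; protective hits raise ATP signal compared with cytokine alone wells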
[27] = Trypanosoma cruzi growth suppression in host cells – NIH3T3 host cells, beta-gal luminescence, confirmation (AID 2044); format: functional, cell-based;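 note: intracellular parasites grown in NIH/3T3 mouse fibroblasts as host cells; luminescent beta-galactosidase reporter signal from transgenic T. cruzi replicating inside host cells; inhibitors lower the luminescence signal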
[28] = target: DNA dC->dU-editing enzyme APOBEC-3G (Homo sapiens, UniProt Q9HC16); format: functional;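 note: Dose-response counterscreen measuring inhibition of APOBEC3G DNA deaminase activity, run while confirming APOBEC3A inhibitors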
Sequence of DNA dC->dU-editing enzyme APOBEC-3G (Q9HC16 whole entry): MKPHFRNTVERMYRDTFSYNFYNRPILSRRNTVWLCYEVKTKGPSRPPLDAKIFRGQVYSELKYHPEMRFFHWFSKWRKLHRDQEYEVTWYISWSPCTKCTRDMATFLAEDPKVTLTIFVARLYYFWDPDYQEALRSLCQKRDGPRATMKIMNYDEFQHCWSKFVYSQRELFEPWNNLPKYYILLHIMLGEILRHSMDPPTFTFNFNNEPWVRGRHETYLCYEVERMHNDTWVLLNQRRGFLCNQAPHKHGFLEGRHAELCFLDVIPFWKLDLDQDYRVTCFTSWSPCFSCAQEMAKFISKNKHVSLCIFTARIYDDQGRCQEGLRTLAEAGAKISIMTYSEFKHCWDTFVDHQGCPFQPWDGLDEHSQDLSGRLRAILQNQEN

[29] = decrease of insulin promoter-GFP reporter – imaging, high-content screening, mouse beta cells (AID 1628); format: functional; settings: MIN6
[30] = MIN6 cell viability loss – mouse insulinoma, cytotoxicity control, dose response (AID 2122); format: functional;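 note: confirmatory high-throughput counterscreen run to flag cytotoxic compounds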
[31] = target: T6, Corticotropin-releasing factor receptor 2/Corticotropin-releasing factor-binding protein (Homo sapiens, UniProt P24387+Q13324); test: activators of CRF receptor 2 with binding protein – uHTS hits, confirmation (AID 602473); format: functional; settings: read-out: EC50_Mean
T6 sequence (Q13324 whole entry): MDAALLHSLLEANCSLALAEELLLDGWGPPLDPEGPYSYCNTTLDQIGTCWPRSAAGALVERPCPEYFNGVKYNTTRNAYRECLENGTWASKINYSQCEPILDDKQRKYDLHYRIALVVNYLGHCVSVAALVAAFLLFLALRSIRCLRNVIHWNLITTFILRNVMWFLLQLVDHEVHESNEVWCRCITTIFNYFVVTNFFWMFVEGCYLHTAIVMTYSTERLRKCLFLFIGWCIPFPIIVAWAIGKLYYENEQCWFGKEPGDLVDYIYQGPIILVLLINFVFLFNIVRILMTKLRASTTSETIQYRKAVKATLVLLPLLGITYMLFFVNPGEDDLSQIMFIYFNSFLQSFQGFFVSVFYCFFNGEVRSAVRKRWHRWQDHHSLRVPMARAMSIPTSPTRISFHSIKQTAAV
T6 sequence (P24387 whole entry): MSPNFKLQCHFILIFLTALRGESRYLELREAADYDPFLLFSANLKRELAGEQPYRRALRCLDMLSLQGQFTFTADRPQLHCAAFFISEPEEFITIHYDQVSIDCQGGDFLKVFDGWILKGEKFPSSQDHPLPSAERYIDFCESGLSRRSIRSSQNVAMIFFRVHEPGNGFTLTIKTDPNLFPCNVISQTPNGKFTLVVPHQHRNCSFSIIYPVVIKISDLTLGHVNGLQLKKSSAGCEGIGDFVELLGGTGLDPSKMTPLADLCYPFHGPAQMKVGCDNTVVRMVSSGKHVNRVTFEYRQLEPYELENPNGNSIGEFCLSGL

With COc1cc(CNCCc2ccccc2)cc(Cl)c1OCc1ccccc1 the AC50 [1] was 5.32 µM (active), the CC50 [2] was 13.7 µM (active) and the CC50 [3] was 17.4 µM (active). For the same molecule, the CC50 [4] was 22.9 µM (active), the CC50 [5] was 15.5 µM (active) and the IC50 (cells) was 13.9 µM (active).
With CCCCC1(CC(=O)OCC)C(=O)N(c2ccccc2)N(c2ccccc2)C1=O the EC50 (HEK293 [6]) was > 59.6 µM (inactive) and the EC50 (HEK293 [7]) was > 59.6 µM (inactive).
For NC(CCc1ccccc1)c1csc(NC(=O)Nc2ccccc2Oc2ccccc2)n1 (centres undefined), the EC50 (HEK293 [6]) was > 59.6 µM (inactive), the EC50 (HEK293 [7]) was > 59.6 µM (inactive) and the AC50 [8] was 13.6 µM (active). For the same molecule, the AC50 [9] was 7.18 µM (active), the AC50 [10] was 11.4 µM (active) and the AC50 [11] was 13.5 µM (active). For the same molecule, the AC50 [12] was 0.824 µM (active), the AC50 [13] was 1.65 µM (active) and the AC50 [14] was 3.38 µM (active). For the same molecule, the AC50 [15] was 4.98 µM (active).
With CCOC(=O)Cn1c2ccc(OC)cc2c2nc3ccccc3nc21 the EC50 [16] was > 99 µM (inactive), the EC50 [17] was 0.862 µM (inconclusive) and the EC50 [18] was 50.7 µM (inactive). The EC50 [19] was 2.26 µM (active), the IC50 [20] was 4.34 µM (active) and the IC50 [21] was > 50 µM (inactive).
For CCCCCOc1ccc(C(=O)CCC(=O)NNC(=O)c2ccncc2)cc1, the IC50 [22] was > 100 µM (inactive), the IC50 [23] was 25.6 µM (active) and the IC50 [24] was 14.7 µM (active).
In the case of NS(=O)(=O)c1cc(C(=O)N=Nc2c(O)[nH]c3ccccc23)ccc1Cl, the IC50 [22] was > 100 µM (inactive), the IC50 [23] was > 100 µM (inactive) and the IC50 [24] was 42.4 µM (active).
In the case of CCCCCCCC[n+]1c(C)n(-c2ccccc2)c2ccc(NC(C)=O)cc21, the IC50 [25] was 1.44 µM (active), the EC50 [26] was > 60 µM (not active) and the AC50 (INS1) was 2.41 µM (active). The EC50 [27] was 0.768 µM (active), the IC50 [28] was 2.66 µM (active) and the IC50 [29] was < 0.25 µM (active). For the same molecule, the IC50 [30] was < 0.25 µM (active).
With NC(=O)c1ccc2c(O)c(O)c(-c3cc(Cl)c(N)c(Cl)c3)nc2c1 the IC50 [20] was 14.1 µM (active) and the IC50 [21] was 28.9 µM (active).
With CCCN(CCC)S(=O)(=O)c1ccc(C(=O)Nc2nnc(-c3cccc(OC)c3)o2)cc1 the CC50 [2] was 1.49 µM (active), the CC50 [3] was 3.51 µM (active) and the CC50 [5] was 12.4 µM (active). For the same molecule, the EC50 [31] was 5.45 µM (active) and the IC50 (cells) was 15.1 µM (active).

Source: ChEMBL document CHEMBL1201862, “PubChem BioAssay data set” (2004)
